Values quoted from earlier work, collected in patent publication US20110052580A1, “USE OF PICOPLATIN AND BEVACIZUMAB TO TREAT COLORECTAL CANCER” (Poniard Pharmaceuticals, Inc., priority 2008, published 2011).

How the values were obtained:
[1] = test system: metastatic colorectal cancer (MCRC); details: single agent therapy
[2] = test system: human vascular endothelial growth factor (VEGF)
[3] = test system: xenotransplant models of colon cancer; details: mouse, in vivo

Chain of human vascular endothelial growth factor (VEGF) (P15692 207-311 limits assumed): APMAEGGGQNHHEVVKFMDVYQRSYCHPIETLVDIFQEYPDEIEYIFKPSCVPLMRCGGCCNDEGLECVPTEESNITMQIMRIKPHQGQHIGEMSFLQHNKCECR

Molecule	Median survival [1] [months]	Progression-free survival, median [1] [months]	Response rate [1] [%]	Binding to and inhibition of VEGF [2]	Effect on metastatic disease progression [3]	Effect on microvascular growth [3]
CCc1c2c(nc3ccc(OC(=O)N4CCC(N5CCCCC5)CC4)cc13)-c1cc3c(c(=O)n1C2)COC(=O)[C@]3(O)CC [irinotecan]	~12	4.3	18	–	–	–
O=C1[O][Pt]2([NH][C@@H]3CCCC[C@H]3[NH]2)[O]C1=O [oxaliplatin]	~14.5	4.0	12	–	–	–
bevacizumab: recombinant humanized monoclonal IgGl antibody that binds to and inhibits human vascular endothelial growth factor (VEGF)	–	–	–	binds to and inhibits the biologic activity of human vascular endothelial growth factor (VEGF)	inhibition of metastatic disease progression	reduction of microvascular growth
